Peptide text beside a SMILES is read from it.
Experiments:
Nociceptin receptor [1] = molecular target: T1, Nociceptin receptor (Homo sapiens, UniProt P41146); assay: Displacement of [3H]N/OFQ from human NOP receptor expressed in CHO cells; format: cell-based
Nociceptin receptor [2] = molecular target: T1, Nociceptin receptor; assay: Agonist activity at human NOP receptor expressed in CHO cells assessed as stimulation of [35S]GTPgammaS binding; format: functional, cell-based
Nociceptin receptor [3] = molecular target: T1, Nociceptin receptor; assay: Agonist activity at human NOP receptor expressed in CHO cells assessed as stimulation of [35S]GTPgammaS binding relative to nociceptin/orphanin FQ (1-13)NH2 peptide; format: functional, cell-based
Nociceptin receptor [4] = molecular target: T1, Nociceptin receptor; assay: Binding affinity to human NOP receptor
Nociceptin receptor [5] = molecular target: T1, Nociceptin receptor; assay: Agonist activity at human NOP receptor by [35S]GTPgammaS binding assay; format: functional

T1 sequence (P41146 whole entry): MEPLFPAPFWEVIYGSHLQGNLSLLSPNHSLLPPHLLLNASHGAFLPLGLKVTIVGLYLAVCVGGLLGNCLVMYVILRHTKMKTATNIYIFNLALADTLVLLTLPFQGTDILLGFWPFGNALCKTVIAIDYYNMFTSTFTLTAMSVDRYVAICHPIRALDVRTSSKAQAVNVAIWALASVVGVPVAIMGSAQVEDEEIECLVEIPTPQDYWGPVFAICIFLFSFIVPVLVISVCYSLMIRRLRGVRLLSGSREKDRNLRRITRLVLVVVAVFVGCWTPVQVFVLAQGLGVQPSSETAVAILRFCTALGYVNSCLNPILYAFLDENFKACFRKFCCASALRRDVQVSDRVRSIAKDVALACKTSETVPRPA

C[C@H](NC(=O)[C@@H]1CCCCNC(=O)C[C@@H](NC(=O)CNC(=O)[C@@H](NC(=O)[C@H](Cc2ccccc2)NC(=O)CNC(=O)CNC(=O)[C@@H](N)Cc2ccccc2)[C@@H](C)O)C(=O)N[C@@H](CCCNC(=N)N)C(=O)N[C@@H](CCCCN)C(=O)N1)C(=O)N[C@@H](CCCNC(=N)N)C(=O)N[C@@H](CCCCN)C(N)=O
Ki (Nociceptin receptor [1]): 0.27 nM | EC50 (Nociceptin receptor [2]): 1.6 nM

C[C@H](NC(=O)[C@H](CCCCN)NC(=O)[C@H](CCCCN)NC(=O)[C@H](CCCN=C(N)N)NC(=O)[C@@H](CC(=O)O)NC(=O)CNC(=O)[C@@H](NC(=O)[C@H](Cc1ccccc1)NC(=O)CNC(=O)CNC(=O)[C@@H](N)Cc1ccccc1)[C@@H](C)O)C(=O)N[C@@H](CCCN=C(N)N)C(=O)N[C@@H](CCCCN)C(N)=O
Ki (Nociceptin receptor [1]): 1.79 nM | EC50 (Nociceptin receptor [2]): 106 nM

C[C@H](NC(=O)[C@@H]1CCCCNC(=O)C[C@H](NC(=O)CNC(=O)[C@@H](NC(=O)[C@H](Cc2ccccc2)NC(=O)CNC(=O)CNC(=O)[C@@H](N)Cc2ccccc2)[C@@H](C)O)C(=O)N[C@@H](CCCNC(=N)N)C(=O)N[C@@H](CCCCN)C(=O)N1)C(=O)N[C@@H](CCCNC(=N)N)C(=O)N[C@@H](CCCCN)C(N)=O
Activity (Nociceptin receptor [3]): 92%

C[C@H](NC(=O)[C@H](CCCCN)NC(=O)[C@H](CCCCN)NC(=O)[C@H](CCCNC(=N)N)NC(=O)[C@@H](CC(=O)O)NC(=O)CNC(=O)[C@@H](NC(=O)[C@H](Cc1ccccc1)NC(=O)CNC(=O)CNC(=O)[C@@H](N)Cc1ccccc1)[C@@H](C)O)C(=O)N[C@@H](CCCNC(=N)N)C(=O)N[C@@H](CCCCN)C(N)=O
Activity (Nociceptin receptor [3]): 100%

C[C@H](NC(=O)[C@@H]1CSSC[C@H](NC(=O)[C@@H](NC(=O)[C@H](Cc2ccccc2)NC(=O)CNC(=O)CNC(=O)[C@@H](N)Cc2ccccc2)[C@@H](C)O)C(=O)N[C@@H](C)C(=O)N[C@@H](CCCNC(=N)N)C(=O)N[C@@H](CCCCN)C(=O)N1)C(=O)N[C@@H](CCCNC(=N)N)C(=O)N[C@@H](CCCCN)C(N)=O (HELM PEPTIDE1{F.G.G.F.T.C.A.R.K.C.A.R.K.[am]}$PEPTIDE1,PEPTIDE1,6:R3-10:R3$$$V2.0)
Ki (Nociceptin receptor [4]): 0.83 nM

C[C@H](NC(=O)[C@@H]1CCCCNC(=O)C[C@H](NC(=O)[C@@H](NC(=O)[C@H](Cc2ccccc2)NC(=O)CNC(=O)CNC(=O)[C@@H](N)Cc2ccccc2)[C@@H](C)O)C(=O)N[C@@H](C)C(=O)N[C@@H](CCCN=C(N)N)C(=O)N[C@@H](CCCCN)C(=O)N1)C(=O)N[C@@H](CCCN=C(N)N)C(=O)N[C@@H](CCCCN)C(N)=O (HELM PEPTIDE1{F.G.G.F.T.D.A.R.K.K.A.R.K.[am]}$PEPTIDE1,PEPTIDE1,6:R3-10:R3$$$V2.0)
Ki (Nociceptin receptor [1]): 0.34 nM | EC50 (Nociceptin receptor [2]): 4.12 nM

C[C@H](NC(=O)[C@@H]1CCCCNC(=O)C[C@H](NC(=O)[C@@H](NC(=O)[C@H](Cc2ccccc2)NC(=O)CNC(=O)CNC(=O)[C@@H](N)Cc2ccccc2)[C@@H](C)O)C(=O)N[C@@H](C)C(=O)N[C@@H](CCCNC(=N)N)C(=O)N[C@@H](CCCCN)C(=O)N1)C(=O)N[C@@H](CCCNC(=N)N)C(=O)N[C@@H](CCCCN)C(N)=O (HELM PEPTIDE1{F.G.G.F.T.D.A.R.K.K.A.R.K.[am]}$PEPTIDE1,PEPTIDE1,6:R3-10:R3$$$V2.0)
Activity (Nociceptin receptor [3]): 80%

C[C@H](NC(=O)[C@@H]1CSSC[C@H](NC(=O)CNC(=O)[C@@H](NC(=O)[C@H](Cc2ccccc2)NC(=O)CNC(=O)CNC(=O)[C@@H](N)Cc2ccccc2)[C@@H](C)O)C(=O)N[C@@H](CCCN=C(N)N)C(=O)N[C@@H](CCCCN)C(=O)N1)C(=O)N[C@@H](CCCN=C(N)N)C(=O)N[C@@H](CCCCN)C(N)=O (HELM PEPTIDE1{F.G.G.F.T.G.C.R.K.C.A.R.K.[am]}$PEPTIDE1,PEPTIDE1,7:R3-10:R3$$$V2.0)
EC50 (Nociceptin receptor [5]): 0.69 nM | Ki (Nociceptin receptor [4]): 0.1 nM

H-FGGFTDARKKARK-NH2
Activity (Nociceptin receptor [3]): 122% | Ki (Nociceptin receptor [1]): 0.54 nM | EC50 (Nociceptin receptor [2]): 22.3 nM

— ChEMBL document CHEMBL1155862, “High affinity conformationally constrained nociceptin/orphanin FQ(1-13) amide analogues” (J Med Chem, 2008)
